15 compounds from patent US20240190880A1 (THE REGENTS OF THE UNIVERSITY OF MICHIGAN, priority 2021, published 2024) can be followed below.

By DC50 is commonly meant the midpoint of the concentration-degradation curve.

Where only a bound is given, the exact number is not on record here.

The first test deals with T1, ER (Homo sapiens, UniProt P03372).
T1 construct: host or cells: T47D and MCF7 human breast cancer cells
T1 sequence (P03372 1-595): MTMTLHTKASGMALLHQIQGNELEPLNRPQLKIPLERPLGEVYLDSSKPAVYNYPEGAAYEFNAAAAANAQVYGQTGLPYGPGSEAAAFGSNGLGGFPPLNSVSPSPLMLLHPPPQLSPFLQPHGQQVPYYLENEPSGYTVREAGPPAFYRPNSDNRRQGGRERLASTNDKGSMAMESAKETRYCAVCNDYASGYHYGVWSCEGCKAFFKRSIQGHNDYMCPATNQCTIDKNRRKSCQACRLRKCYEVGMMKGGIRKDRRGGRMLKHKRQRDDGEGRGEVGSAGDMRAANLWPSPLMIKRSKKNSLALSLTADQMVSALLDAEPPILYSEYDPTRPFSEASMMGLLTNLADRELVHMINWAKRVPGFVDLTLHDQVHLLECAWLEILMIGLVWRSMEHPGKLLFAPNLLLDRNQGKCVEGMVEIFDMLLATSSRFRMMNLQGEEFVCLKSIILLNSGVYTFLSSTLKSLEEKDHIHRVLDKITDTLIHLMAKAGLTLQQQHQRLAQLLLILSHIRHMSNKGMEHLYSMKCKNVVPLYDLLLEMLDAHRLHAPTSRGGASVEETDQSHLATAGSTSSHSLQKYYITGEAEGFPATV
Briefly: ER degradation activity, in-cell western blot analysis in T47D cells. In kind it is cell-based. The settings on record: 16 hours, Table A does not say which cell line (T47D or MCF7), read-out: Potency (DC50). The method, boiled down: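 In-cell western, T47D; compounds 16 h, 0.5% DMSO final; anti-rabbit-680/anti-mouse-800 secondaries, 1 h RT, dark; read on CLX imager. ER % vs untreated/DMSO wells (100%).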
On to `C[C@@H]1Cc2c([nH]c3ccccc23)[C@@H](c2c(F)cc(N3CC(C(=O)N4CC(CN5Cc6cc7c(cc6C5)C(=O)N(C5CCC(=O)NC5=O)C7=O)C4)C3)cc2F)N1CC(F)F` (stereo partly drawn) [E 230, 6-((1-(1-(4-((1R,3R)-2-(2,2-difluoroethyl)-3-methyl-2,3,4,9-tetrahydro-1H-pyrido[3,4-b]indol-1-yl)-3,5-difluorophenyl)azetidine-3-carbonyl)azetidin-3-yl)methyl)-2-(2,6-dioxopiperidin-3-yl)-6,7-dihydropyrrolo[3,4-f]isoindole-1,3(2H,5H)-dione], for which the DC50 was 10 to 100 nM.

Take `O=C1CCC(N2C(=O)c3cc4c(cc3C2=O)CN(C(=O)CN2CCC3(CC2)CCN(c2ccc([C@@H]5c6ccc(O)cc6CC[C@@H]5c5ccccc5)cc2)CC3)C4)C(=O)N1` (mixture of isomers) [E 126, Rac-2-(2,6-dioxopiperidin-3-yl)-6-(2-(9-(4-((1R,2S)-6-hydroxy-2-phenyl-1,2,3,4-tetrahydronaphthalen-1-yl)phenyl)-3,9-diazaspiro[5.5]undecan-3-yl)acetyl)-6,7-dihydropyrrolo[3,4-f]isoindole-1,3(2H,5H)-dione]: the DC50 lay within 10 to 100 nM.

Take `C[C@@H]1Cc2c([nH]c3ccccc23)[C@@H](c2c(F)cc(N3CC4(CN(CC(=O)N5Cc6cc7c(cc6C5)C(=O)N(C5CCC(=O)NC5=O)C7)C4)C3)cc2F)N1CC(F)F` (stereo partly drawn) [E 65, 3-(6-(2-(6-(4-((1R,3R)-2-(2,2-difluoroethyl)-3-methyl-2,3,4,9-tetrahydro-1H-pyrido[3,4-b]indol-1-yl)-3,5-difluorophenyl)-2,6-diazaspiro[3.3]heptan-2-yl)acetyl)-1-oxo-3,5,6,7-tetrahydropyrrolo[3,4-f]isoindol-2(1H)-yl)piperidine-2,6-dione]: the DC50 is < 10 nM.

Turning to `C[C@@H]1Cc2c([nH]c3ccccc23)[C@@H](c2c(F)cc(N3CC4(CN(C(=O)CN5Cc6cc7c(cc6C5)C(=O)N(C5CCC(=O)NC5=O)C7)C4)C3)cc2F)N1CC(F)F` (stereo partly drawn) [E 71, 3-(6-(2-(6-(4-((1R,3R)-2-(2,2-difluoroethyl)-3-methyl-2,3,4,9-tetrahydro-1H-pyrido[3,4-b]indol-1-yl)-3,5-difluorophenyl)-2,6-diazaspiro[3.3]heptan-2-yl)-2-oxoethyl)-1-oxo-3,5,6,7-tetrahydropyrrolo[3,4-f]isoindol-2(1H)-yl)piperidine-2,6-dione], the DC50 was < 10 nM.

Turning to `O=C1CCC(N2C(=O)c3cc4c(cc3C2=O)CN(C2CCN(C(=O)C3(F)CCN(c5ccc([C@@H]6c7ccc(O)cc7CC[C@@H]6c6ccccc6)cc5)CC3)CC2)C4)C(=O)N1` (stereo partly drawn) [E 241, 2-(2,6-dioxopiperidin-3-yl)-6-(1-(4-fluoro-1-(4-((1R,2S)-6-hydroxy-2-phenyl-1,2,3,4-tetrahydronaphthalen-1-yl)phenyl)piperidine-4-carbonyl)piperidin-4-yl)-6,7-dihydropyrrolo[3,4-f]isoindole-1,3(2H,5H)-dione], the DC50 is > 100 nM.

Turning to `C[C@@H]1Cc2c([nH]c3ccccc23)[C@@H](c2c(F)cc(C3CCC(C(=O)N4CCC(F)(CN5Cc6cc7c(cc6C5)C(=O)N(C5CCC(=O)NC5=O)C7=O)CC4)CC3)cc2F)N1CC(F)F` (stereo partly drawn) [E247, 6-((1-(4-(4-((1R,3R)-2-(2,2-difluoroethyl)-3-methyl-2,3,4,9-tetrahydro-1H-pyrido[3,4-b]indol-1-yl)-3,5-difluorophenyl)cyclohexane-1-carbonyl)-4-fluoropiperidin-4-yl)methyl)-2-(2,6-dioxopiperidin-3-yl)-6,7-dihydropyrrolo[3,4-f]isoindole-1,3(2H,5H)-dione], the DC50 lay in the range of 10 to 100 nM.

In the case of `C[C@@H]1CC2(CCN(c3ccc([C@@H]4c5ccc(O)cc5CC[C@@H]4c4ccc(F)cc4)cc3)CC2)CN1C(=O)CN1Cc2cc3c(cc2C1)C(=O)N(C1CCC(=O)NC1=O)C3=O` (mixture of isomers) [E 145, Rac-2-(2,6-dioxopiperidin-3-yl)-6-(2-((R)-8-(4-((1R,2S)-2-(4-fluorophenyl)-6-hydroxy-1,2,3,4-tetrahydronaphthalen-1-yl)phenyl)-3-methyl-2,8-diazaspiro[4.5]decan-2-yl)-2-oxoethyl)-6,7-dihydropyrrolo[3,4-f]isoindole-1,3(2H,5H)-dione], the DC50 lay within 10 to 100 nM.

As for `C[C@H]1CC2(CCN(CC(=O)N3Cc4cc5c(cc4C3)C(=O)N(C3CCC(=O)NC3=O)C5=O)CC2)CN1c1ccc([C@@H]2c3ccc(O)cc3CC[C@@H]2c2ccccc2)cc1` (mixture of isomers) [E 144, Rac-2-(2,6-dioxopiperidin-3-yl)-6-(2-((S)-2-(4-((1R,2S)-6-hydroxy-2-phenyl-1,2,3,4-tetrahydronaphthalen-1-yl)phenyl)-3-methyl-2,8-diazaspiro[4.5]decan-8-yl)acetyl)-6,7-dihydropyrrolo[3,4-f]isoindole-1,3(2H,5H)-dione], the DC50 was > 100 nM.

Turning to `O=C1CCC(N2C(=O)c3cc4c(cc3C2=O)CN(CC2CCN(CC3(F)CN(c5ccc([C@@H]6c7ccc(O)cc7CC[C@@H]6c6ccccc6)cc5)C3)CC2)C4)C(=O)N1` (stereo partly drawn) [E 286, 2-(2,6-dioxopiperidin-3-yl)-6-((1-((3-fluoro-1-(4-((1R,2S)-6-hydroxy-2-phenyl-1,2,3,4-tetrahydronaphthalen-1-yl)phenyl)azetidin-3-yl)methyl)piperidin-4-yl)methyl)-6,7-dihydropyrrolo[3,4-f]isoindole-1,3(2H,5H)-dione], the DC50 is > 100 nM.

Turning to `O=C1CCC(N2C(=O)c3cc4c(cc3C2=O)CN(c2ncc(CN3CC(Oc5ccc([C@@H]6c7ccc(O)cc7CC[C@@H]6c6ccccc6)cc5)C3)cn2)C4)C(=O)N1` (stereo partly drawn) [E327, 2-(2,6-dioxopiperidin-3-yl)-6-(5-((3-(4-((1R,2S)-6-hydroxy-2-phenyl-1,2,3,4-tetrahydronaphthalen-1-yl)phenoxy)azetidin-1-yl)methyl)pyrimidin-2-yl)-6,7-dihydropyrrolo[3,4-f]isoindole-1,3(2H,5H)-dione], the DC50 is > 100 nM.

Regarding `O=C1CCC(N2C(=O)c3cc4c(cc3C2=O)CCN(CC(=O)N2CC3(CCN(c5ccc([C@@H]6c7ccc(O)cc7CC[C@@H]6c6ccc(F)cc6)cc5)CC3)C2)CC4)C(=O)N1` (stereo partly drawn) [E 184, 2-(2,6-dioxopiperidin-3-yl)-7-(2-(7-(4-((1R,2S)-2-(4-fluorophenyl)-6-hydroxy-1,2,3,4-tetrahydronaphthalen-1-yl)phenyl)-2,7-diazaspiro[3.5]nonan-2-yl)-2-oxoethyl)-6,7,8,9-tetrahydroazepino[4,5-f]isoindole-1,3(2H,5H)-dione], the DC50 was > 100 nM.

As for `O=C1CCC(N2C(=O)c3cc4c(cc3C2=O)CN([C@H]2CC[C@H](NC3CCN(c5ccc([C@@H]6c7ccc(O)cc7CC[C@@H]6c6ccccc6)cc5)CC3)CC2)C4)C(=O)N1` (stereo partly drawn) [E 335, 2-(2,6-dioxopiperidin-3-yl)-6-((1R,4r)-4-((1-(4-((1R,2S)-6-hydroxy-2-phenyl-1,2,3,4-tetrahydronaphthalen-1-yl)phenyl)piperidin-4-yl)amino)cyclohexyl)-6,7-dihydropyrrolo[3,4-f]isoindole-1,3(2H,5H)-dione], the DC50 was > 100 nM.

`O=C1CCC(N2C(=O)c3cc4c(cc3C2=O)CN(C(=O)[C@H]2CC[C@H](N3CC(Nc5ccc([C@H]6c7ccc(O)cc7CC[C@H]6c6ccccc6)cc5)C3)CC2)C4)C(=O)N1` (stereo partly drawn) [E 391, 2-(2,6-dioxopiperidin-3-yl)-6-((1S,4r)-4-(3-((4-((1S,2R)-6-hydroxy-2-phenyl-1,2,3,4-tetrahydronaphthalen-1-yl)phenyl)amino)azetidin-1-yl)cyclohexane-1-carbonyl)-6,7-dihydropyrrolo[3,4-f]isoindole-1,3(2H,5H)-dione]: the DC50 is > 100 nM.

Staying with this test, now noted: compounds 16 hours, Table A does not say whether T47D or MCF7, read-out: Potency (DC50).
Take `O=C1CCC(N2C(=O)c3cc4c(cc3C2=O)CN(CC(=O)N2CCC3(CC2)CCN(c2ccc([C@H]5c6ccc(O)cc6CC[C@H]5c5ccccc5)cc2)CC3)C4)C(=O)N1` (stereo partly drawn) [E 437, 2-(2,6-dioxopiperidin-3-yl)-6-(2-(9-(4-((1S,2R)-6-hydroxy-2-phenyl-1,2,3,4-tetrahydronaphthalen-1-yl)phenyl)-3,9-diazaspiro[5.5]undecan-3-yl)-2-oxoethyl)-6,7-dihydropyrrolo[3,4-f]isoindole-1,3(2H,5H)-dione]: the DC50 was > 100 nM.

Take `C[C@@H]1Cc2c([nH]c3ccccc23)[C@@H](c2cnc(N3CCC4(CC3)CC(CN3Cc5cc6c(cc5C3)C(=O)N([C@H]3CCC(=O)NC3=O)C6=O)C4)nc2)N1CC(F)(F)CO` [E 512, 6-((7-(5-((1R,3R)-2-(2,2-difluoro-3-hydroxypropyl)-3-methyl-2,3,4,9-tetrahydro-1H-pyrido[3,4-b]indol-1-yl)pyrimidin-2-yl)-7-azaspiro[3.5]nonan-2-yl)methyl)-2-((S)-2,6-dioxopiperidin-3-yl)-6,7-dihydropyrrolo[3,4-f]isoindole-1,3(2H,5H)-dione]: the DC50 was > 100 nM.
